Key:
Format in all cases: in vivo
[1] = system: Ctenocephalides felis; assay: Activity against Ctenocephalides felis; conditions: 504 h, 100 ppm in flea larvae nutrient medium, flea eggs, checked after 21 days
Procedure: 20 to 25 flea eggs are placed into a horizontally positioned 50 ml tissue culture flask into which 15 g of flea larvae nutrient medium comprising 100 ppm of the active ingredient to be tested have previously been introduced. The test flasks are incubated in an incubator at 26° to 27° C. and an atmospheric humidity of 60-70%. After 21 days, the flasks are checked for the presence of adult fleas, unhatched pupae and larvae.

[2] = system: Aphis craccivora; assay: Activity against Aphis craccivora; conditions: 400 ppm spray on pea seedlings, 20° C., evaluated after 3 and 6 days, read-out: percentage reduction in population (% activity)
Procedure: Pea seedlings are infected with Aphis craccivora, subsequently sprayed with a spray mixture comprising 400 ppm of the active ingredient, and incubated at 20° C. The test is evaluated after 3 and 6 days. The percentage reduction in population (% activity) is determined by comparing the number of dead aphids on the treated plants with those on the untreated plants.

[3] = system: Panonychus ulmi (OP- and carb.- resistant); assay: Activity against Panonychus ulmi (OP- and carb.- resistant); conditions: 336 h, 400 ppm spray on apple seedlings, evaluated after 14 days, read-out: percentage reduction in population (% activity)
Procedure: Apple seedlings are populated with adult females of Panonychus ulmi. After seven days, the infested plants are sprayed to drip point with an aqueous emulsion comprising 400 ppm of the test compound and grown in the greenhouse. The test is evaluated after 14 days. The percentage reduction in population (% activity) is determined by comparing the number of dead spider mites on the treated plants with those on the untreated plants. […] An activity of over 80% is shown, in particular, by compound Nos. 1.01, 2.01, 2.07, 2.08, 2.10, 2.12 to 2.16, 2.22, 2.23, 2.26, 3.01, 4.01, 4.02, 4.06, 5.01 to 5.03, 5.05, 5.06, 5.08, 5.10, 5.11, 5.15, 5.16 and 5.20 to 5.25.

[4] = system: Nephotettix cincticeps; assay: Activity against Nephotettix cincticeps (spray on rice plants); conditions: 504 h, 400 ppm spray on rice plants, larvae in stages 2 and 3, evaluated 21 days later, read-out: percentage reduction in population (% activity)
Procedure: Rice plants are treated with a spray mixture prepared with an aqueous emulsion and comprising 400 ppm of the active ingredient. After the spray coating has dried on, the rice plants are populated with leaf hopper larvae in stages 2 and 3. The test is evaluated 21 days later. The percentage reduction in population (% activity) is determined by comparing the number of surviving leaf hoppers on the treated plants with those on the untreated plants.

[5] = system: Bemisia tabaci; assay: Activity against Bemisia tabaci; conditions: 336 h, 400 ppm spray on dwarf bean plants with nymphs, evaluated 14 days after application, read-out: activity (hatching percentages vs untreated control)
Procedure: Dwarf bean plants are placed into gauze cages and populated with adult Bemisia tabaci specimens (white fly). After oviposition has taken place, all adults are removed and, 10 days later, the plants with the nymphs located thereon are treated with a spray mixture of the active ingredients to be tested (concentration 400 ppm), which has been prepared with an aqueous emulsion. The test is evaluated for hatching percentages 14 days after the active ingredient has been applied by comparison with the untreated control batches. […] An activity of over 80% is shown, in particular, by compound Nos. 1.01, 2.01 to 2.08, 2.10 to 2.16, 2.22, 2.23, 3.01, 4.01, 4.02, 4.05, 4.06, 5.02, 5.03, 5.06 to 5.08, 5.10, 5.11, 5.20, 5.21 and 6.09.

[6] = system: Tetranychus urticae; assay: Activity against Tetranychus urticae; conditions: 144 h, 400 ppm spray on young bean plants, mixed population, 6 days at 25° C, read-out: percentage reduction in population (% activity)
Procedure: Young bean plants are populated with a mixed population of Tetranychus urticae and, after 1 day, sprayed with a spray mixture prepared with an aqueous emulsion and comprising 400 ppm of the active ingredient. The plants are subsequently incubated for 6 days at 25° C and then evaluated. The percentage reduction in population (% activity) is determined by comparing the number of dead eggs, larvae and adults on the treated plants with those on the untreated ones.

[7] = system: Heliothis virescens caterpillars; assay: Activity against Heliothis virescens caterpillars; conditions: 144 h, 400 ppm spray on young soybean plants, first larval stage, evaluated after 6 days, read-out: percentage reduction in population or in feeding damage (% activity)
Procedure: (§1) Young soybean plants are sprayed with a spray mixture prepared with an aqueous emulsion and comprising 400 ppm of the active ingredient. After the spray coating has dried on, the soybean plants are populated with 10 Heliothis virescens in the first larval stage and placed into a plastic container. The test is evaluated after 6 days. The percentage reduction in population, or the percentage reduction in feeding damage (% activity), is determined by comparing the number of dead caterpillars and the feeding damage on the treated plants with those on the untreated plants.

[8] = system: Crocidolomia binotalis caterpillars; assay: Activity against Crocidolomia binotalis caterpillars; conditions: Brassica oleracea, 72 h; 400 ppm spray on young cabbage plants, third larval stage, evaluated after 3 days; read-out: percentage reduction in population or in feeding damage (% activity)
Procedure: as §1, with “cabbage” for “soybean”, “infested” for “populated”, “Crocidolomia binotalis” for “Heliothis virescens”, “third” for “first”, “3” for “6”

[9] = system: Nephotettix cincticeps; assay: Systemic activity against Nephotettix cincticeps; conditions: 144 h, pots with rice plants in 400 ppm aqueous emulsion solution, larvae in stages 2 and 3, evaluated after 6 days, read-out: percentage reduction in population (% activity)
Procedure: Pots containing rice plants are placed into an aqueous emulsion solution comprising 400 ppm of the active ingredient. The rice plants are subsequently populated with larvae in stages 2 and 3. The test is evaluated after 6 days. The percentage reduction in population (% activity) is determined by comparing the number of leaf hoppers on the treated plants with those on the untreated plants.

[10] = system: Heliothis virescens; assay: Ovicidal/larvicidal activity on Heliothis virescens; conditions: 192 h, 400 ppm spray on eggs deposited on cotton, evaluated after 8 days, read-out: % reduction in population (hatching percentage of eggs and survival rate of caterpillars)
Procedure: Heliothis eggs which have been deposited on cotton are sprayed with a spray mixture prepared with an aqueous emulsion and comprising 400 ppm of the active ingredient. After 8 days, the hatching percentage of the eggs and the survival rate of the caterpillars are evaluated by comparing them with untreated control batches (% reduction in population).

O=C(CC=C(F)F)OCCOc1ccc(Oc2ccccc2)cc1 [Compound 1.01, 2-(4-phenoxyphenoxy)ethyl-4,4-difluorobut-3-enoate]
> 80%: pest or weed control at 100 ppm [1] | activity at 400 ppm [2] | activity at 400 ppm [3] | activity at 400 ppm [4] | pest or weed control at 400 ppm [5] | activity at 400 ppm [6] | activity at 400 ppm [7] | activity at 400 ppm [8] | activity at 400 ppm [9] | pest or weed control at 400 ppm [10]

O=C(CCCCCC=C(F)F)OCCOc1ccc(Oc2ccccc2)cc1 [Compound 3.01]
> 80%: pest or weed control at 100 ppm [1] | activity at 400 ppm [2] | activity at 400 ppm [3] | activity at 400 ppm [4] | pest or weed control at 400 ppm [5] | activity at 400 ppm [6] | activity at 400 ppm [7] | activity at 400 ppm [8] | activity at 400 ppm [9] | pest or weed control at 400 ppm [10]
